Data set [1] deals with GM2 and GM3 gangliosides in primary cultures of cortical neurons. Nature of the data set: Fluorescence intensity of GM2 / GM3 immunostaining in primary cultures of cortical neurons. The class given is cell-based, mouse. The conditions noted are these: for increase in overall GM2 levels: glutamate treatment. The protocol:
Mouse primary cultures of cortical neurons were treated with Miglustat (Tocris) from the second day in culture. Medium was changed every three days. Immunostaining were performed after six days of culture in vitro, as previously described (Murmu et al., 2011). To downregulate GM3 synthase expression, vectors expressing miRNA were produced using the Block-it kit (Life Technologies). The miRNA sequences were: […] TGTACAT (miRNA GM3S-1) (SEQ ID NO: 3), […] (miRNA GM3S-2) (SEQ ID NO: 4), […] CTGTAGA (miRNA Neu1-1) (SEQ ID NO: 5) and […] ATCGTAG (miRNA Neu1-2) (SEQ ID NO: 6). Neurons were transfected with vectors expressing the miRNA and GFP using the Neon transfection system (Life Technologies). The efficiency of the miRNA sequences was validated by transfecting NIH-3T3 cells and performing quantitative RT-PCR using a LightCycler 480 apparatus (Roche) following the manufacturer's instructions. […] Quantification of gangliosides levels was performed either with an automated ArrayScan XTI apparatus (Thermo-Fisher) using the General Intensity Measurement protocol, or with ImageJ on image acquired on a Nikon Eclipse Ti-U microscope. […] Colocalization of ganglioside staining with lysosomes was quantified using ImageJ. A mask was made from the Lamp1 staining channel and the corresponding ganglioside fluorescence was quantified as the percentage of total ganglioside fluorescence in every cell. […] To quantify neuronal death, 30 hours after glutamate treatment all neurons were labeled with 100 nM Cell tracker Deep Red (Life Technologies) and dead cells were labeled by propidium iodide (5 μM). […] The number of Tuj-1-positive cells per well was quantified with an automated ArrayScan XTI apparatus (Thermo-Fisher) using the compartmental analysis protocol. Neuronal death was quantified by comparing glutamate-treated and non-treated neurons.

The next data set concerns cultured neurons. Conditions: glutamate treatment; cited from earlier work.
In another data set the test system is p62. In words: Western blot analysis of p62 levels in cortical neurons. The class given is cell-based, mouse. (In general: In western blotting, separated proteins are transferred to a membrane and probed.)
In data set [2] the test system is zebrafish zspg11 morphants. Nature of the data set: Zebrafish zspg11 model: phenotype of morphants 48 hours post fertilization. It counts as in vivo. The conditions noted are these: 48 hpf; for motor phenotype of morphants: injection of 1.2 pmol morpholino vs mismatch or non-injected. On the procedure:
(§1) Modeling of Spg11 pathology in zebrafish was performed as described previously (Martin, 2012). The knock-down of zspg11 was performed using a morpholino targeting a splice donor site, zspg11spl (5′-[…]-3′—SEQ ID NO: 88). The control morpholino mmzspg11spl (5′-ACgAATgATAGCcTCTCGTAgCgTC-3′—SEQ ID NO: 89) containing five mismatch nucleotides was used to distinguish specific phenotypic effects resulting from the knock-down of zspg11 from non-specific effects due to injection or morpholino toxicity. One nl of 1.2 mM solution of zspg11spl or mmzspg11spl were injected into the yolk of one- to two-cell stage embryos. After injection, embryos were maintained at 28° C. in E3 medium, containing miglustat (Tocris Bioscience) at 100 or 300 uM or DMSO for control groups. At 24 hpf they were manually dechorionated using fine forceps. […] To quantify motor activity, we monitored the touch-evoked escape response at 48 hours post-fertilization in fishes with no obvious developmental abnormalities as previously described (Martin, 2012). Images were acquired at 500 images per sec. Tracking of the touch evoked escape response was performed using the Image J manual tracking plugin. Assessment of GM2 ganglioside levels was performed by whole-mount in vivo immunohistochemistry using 48 hpf embryos fixed in 4% paraformaldehyde in PBS for 2 h at room temperature. Embryos were washed 3 times (5 min each) in PBS-0.1% Triton X-100 (PBST). Embryos were blocked for 1 h in 5% normal goat serum in PBS containing 1% DMSO and 1% Triton X-100 (PBDT), then incubated overnight at 4° C. in blocking solution containing the GM2 primary antibody. […] Larvae were oriented in the same position for image capture to minimize potential biases in quantification. […] Using ImageJ software, the maximum intensity projections of z-stacks were used for quantification of fluorescence in the telencephalon. Mean and variance of the fluorescence intensity were quantified for each morphant in a square of 100 pixels per 100 pixels.

Data set [3] has as its system GM2 in the telencephalon of zebrafish morphants. Nature of the data set: Zebrafish zspg11 model: GM2 immunostaining in the telencephalon. The class given is in vivo. Conditions: for GM2 immunostaining in the telencephalon: injection of 1.2 pmol morpholino vs mismatch morpholino. The protocol: as §1
Data set [4] relates to zebrafish zspg11 morphants. In words: Zebrafish zspg11 model: touch-evoked escape response. It counts as in vivo. The conditions noted are these: for swimming / touch-induced escape: injection of 1.2 pmol morpholino vs mismatch morpholino; for distance travelled following a touch-evoked escape response: treated with miglustat. The protocol:
Modeling of Spg11 pathology in zebrafish was performed as described previously (Martin, 2012). The knock-down of zspg11 was performed using a morpholino targeting a splice donor site, zspg11spl (5′-[…]-3′—SEQ ID NO: 88). The control morpholino mmzspg11spl (5′-ACgAATgATAGCcTCTCGTAgCgTC-3′—SEQ ID NO: 89) containing five mismatch nucleotides was used to distinguish specific phenotypic effects resulting from the knock-down of zspg11 from non-specific effects due to injection or morpholino toxicity. One nl of 1.2 mM solution of zspg11spl or mmzspg11spl were injected into the yolk of one- to two-cell stage embryos. After injection, embryos were maintained at 28° C. in E3 medium, containing miglustat (Tocris Bioscience) at 100 or 300 uM or DMSO for control groups. At 24 hpf they were manually dechorionated using fine forceps. […] To quantify motor activity, we monitored the touch-evoked escape response at 48 hours post-fertilization in fishes with no obvious developmental abnormalities as previously described (Martin, 2012). Images were acquired at 500 images per sec. Tracking of the touch evoked escape response was performed using the Image J manual tracking plugin. Assessment of GM2 ganglioside levels was performed by whole-mount in vivo immunohistochemistry using 48 hpf embryos fixed in 4% paraformaldehyde in PBS for 2 h at room temperature. Embryos were washed 3 times (5 min each) in PBS-0.1% Triton X-100 (PBST). Embryos were blocked for 1 h in 5% normal goat serum in PBS containing 1% DMSO and 1% Triton X-100 (PBDT), then incubated overnight at 4° C. in blocking solution containing the GM2 primary antibody. After 4 washes in PBST at room temperature, embryos were incubated with an anti IgM antibody coupled to Alexa-488 (Thermo Fishser), overnight at room temperature in PBDT. Before observation, embryos were washed 3 times in PSBT and mounted in a drop of Fluoromount™ Aqueous Mounting Medium (Sigma Aldrich). Whole-mount embryos were imaged on a confocal microscope (Leica SP8, 40X, NA 0.8). Larvae were oriented in the same position for image capture to minimize potential biases in quantification. Image stacks were collected with a step-size of 0.35 μm. Using ImageJ software, the maximum intensity projections of z-stacks were used for quantification of fluorescence in the telencephalon. Mean and variance of the fluorescence intensity were quantified for each morphant in a square of 100 pixels per 100 pixels.

Data set [5] has as its system primary cultures of Spg11+/+ and Spg11−/− cortical neurons. Nature of the data set: Neuronal death triggered by glutamate in primary cultures of cortical neurons. Conditions: glutamate 200 μM, 30 hours. It counts as cell-based, mouse. The protocol: (§2) Mouse primary cultures of cortical neurons were treated with Miglustat (Tocris) from the second day in culture. Medium was changed every three days. Immunostaining were performed after six days of culture in vitro, as previously described (Murmu et al., 2011). To downregulate GM3 synthase expression, vectors expressing miRNA were produced using the Block-it kit (Life Technologies). The miRNA sequences were: […] TGTACAT (miRNA GM3S-1) (SEQ ID NO: 3), […] (miRNA GM3S-2) (SEQ ID NO: 4), […] CTGTAGA (miRNA Neu1-1) (SEQ ID NO: 5) and […] ATCGTAG (miRNA Neu1-2) (SEQ ID NO: 6). Neurons were transfected with vectors expressing the miRNA and GFP using the Neon transfection system (Life Technologies). The efficiency of the miRNA sequences was validated by transfecting NIH-3T3 cells and performing quantitative RT-PCR using a LightCycler 480 apparatus (Roche) following the manufacturer's instructions. […] Quantification of gangliosides levels was performed either with an automated ArrayScan XTI apparatus (Thermo-Fisher) using the General Intensity Measurement protocol, or with ImageJ on image acquired on a Nikon Eclipse Ti-U microscope. […] Colocalization of ganglioside staining with lysosomes was quantified using ImageJ. A mask was made from the Lamp1 staining channel and the corresponding ganglioside fluorescence was quantified as the percentage of total ganglioside fluorescence in every cell. […]

Data set [6] deals with autolysosomes in Spg11+/+ and Spg11−/− neurons. In words: Proportion of Lamp1-stained lysosomes also positive for p62 (autolysosomes) in cultured cortical neurons. The class given is cell-based, mouse. Conditions: miglustat 100 μM, six days in vitro. The protocol: as §2
The subject of data set [7] is mouse model of Tay Sachs disease. Conditions: cited from earlier work.

“Also recorded” adds a separate entry of the source.

Consider `N[C@@H](CCC(=O)O)C(=O)O` [Glutamate, glutamate], for which the “increase in overall GM2 levels” value in data set [1] (Spg11−/− neurons, p=0.007, n>10) is recorded as 15.7±3.9%; in data set [1] (control neurons, p=0.02, n>9) it was 20.0±4.6%. The ganglioside levels result with cultured neurons is recorded as “increase ganglioside levels”. The results for the p62 levels result in the data set on p62 (Spg11−/− neurons treated with glutamate (200 μM) for 24 hours) and in the data set with p62 (control neurons treated with glutamate (200 μM) for 24 hours) were “significantly increased” and “no difference”, respectively.

On to “zspg11spl: morpholino targeting a splice donor site for knock-down of zspg11, 5′-ACCAATCATAGCGTCTCGTACCCTC-3′ (all phosphorodiamidate morpholino (PMO))”, for which the entries for the “motor phenotype of morphants” value in [2] and in data set [2] (listed as zspg11 morpholinos) were “large proportion of paralyzed or slowly swimming phenotypes” and “either a loss of motility or a paralysis”, respectively. The “GM2 immunostaining in the telencephalon” value in [3] was “increased the mean and variance of GM2 immunostaining intensity”; in data set [3] (listed as zspg11 morpholinos) it was “stronger GM2 staining”. Moreover, the “swimming / touch-induced escape” value in [4] is reported as “impaired the swimming”; in [4] (listed as zspg11 morpholinos) it was “significantly shorter touch-induced escapes”.

As for `CCCCN1C[C@H](O)[C@@H](O)[C@H](O)[C@H]1CO` [Miglustat, N-butyldeoxynojirimycin], the “levels of GM2 (fluorescence intensity of GM2 immunostaining)” value in data set [1] (control and Spg11−/− cortical neurons, six days in vitro) is on record as “significantly decreased the levels of GM2 in a dose-dependent manner”. Moreover, the “proportion of paralyzed larvae” value in data set [2] (larvae injected with zspg11spl morpholino, miglustat 100 or 300 uM in medium) is on record as “decreased the proportion of paralyzed morphants; also recorded: significantly reduced in a dose-dependent manner”. Also, the “neuronal death induced by glutamate” value in [5] was “prevented neuronal death induced by glutamate; also recorded: decreased the neuronal death induced by glutamate in a dose-dependent manner”. Also, in data set [6], the “proportion of lysosomes positive for the p62 marker” value is “strongly decreased”. In addition, the “glutamate-induced increase of p62 levels” value in the data set with p62 (Spg11−/− neurons, miglustat 100 μM, glutamate 200 μM for 24 hours, p62 normalized to tubulin) is given as “inhibited”. For the same compound, the “GM2 immunostaining intensity (mean and variance) in the telencephalon” value in [3] (morphants injected with zspg11spl morpholino, treated with miglustat, 48 hpf) is listed as “corrected when morphants were treated with miglustat; also recorded: corrected in larvae treated by miglustat”. Besides, the “brain levels of GM2” value in data set [7] is “decrease brain levels of GM2”. Besides, the “distance travelled following a touch-evoked escape response” value in data set [4] (morphants injected with mismatch morpholino) is “no effect”; in data set [4] (morphants injected with zspg11spl morpholino, 48 hpf), “corrected when treated by miglustat; also recorded: significantly corrected”.

The values above are taken from US11065238B2, “Inhibitors of gangliosides metabolism for the treatment of motor neuron diseases” (ICM (INSTITUT DU CERVEAU ET DE LA MOELLE ÉPINIÈRE), priority 2016, dated 2021).
